Source: patent US20240122930A1, “INTEGRIN INHIBITORS AND USES THEREOF IN COMBINATION WITH OTHER AGENTS” (Pliant Therapeutics, Inc., priority 2022, published 2024)
“Also recorded” adds a separate entry of the source.

Tests used:
[1] = system: IPF-derived human lung fibroblasts; experiment: LAP adhesion assay, IPF-derived human lung fibroblasts (xCELLigence); format: cell-based; settings: adhesion to LAP, FIG. 3B
Experimental: Two latency associated peptide (LAP) adhesion binding assays were devised using primary human lung cells, including normal (healthy) human bronchial epithelial cells and human lung fibroblasts (healthy and IPF).
Human lung fibroblasts derived from normal and IPF lung tissue are known to express αVβ1 integrin. The IPF-derived human lung fibroblasts were prepared for the assay by dissociation with trypsin/EDTA, and were seeded at 20,000 cells per well on 96 well plates (ACEA Bioscience E-plate View, Acea Biosciences; San Diego, CA) previously coated with […] of recombinant human LAP (R&D Systems; Minneapolis, MN) and blocked with 4% bovine serum albumin. Cell index (electrical impedance) was measured to assess cell attachment/spreading every 3 minutes for 24 hours at 37° C./5% CO2 using the xCELLigence RTCA MP Instrument (Acea Biosciences; San Diego, CA). […] In the assay, the IPF-derived human lung fibroblasts were separately incubated with: the αVβ1-selective small molecule inhibitor; the selective antibody αVβ6 inhibitor, 3G9; and Compound 5.

[2] = system: Type I Collagen gene Col1a1 expression; experiment: Precision cut lung slices, acute bleomycin exposure, Col1a1 expression; format: cell-based, mice (C57BL/6); settings: acute bleomycin PCLS, 3 days culture; integrin inhibitors at IC50 for TGF-beta activation, pan-αV and ALK5 inhibitors at 10× IC50
Experimental: Mice (C57BL/6) were administered 3 U/kg of bleomycin (Teva Pharmaceuticals; North Wales, PA) on day 0 via oropharyngeal aspiration while under anesthesia. On day 14, precision cut lung slices were obtained. Following euthanization, 2% low gelling temp agarose was injected into the mouse lungs via the trachea. […] The lobes were then subjected to precision slicing to obtain samples for culture using a microtome (Compresstome VF-300-OZ, Precisionary; Greenville, NC). Individual slices were distributed in a multiwell culture plate and cultured for 3 days under control (DMSO) and test compound conditions. The viability of the slices over the course of culturing was confirmed by WST-1 assay of mitochondrial activity.

COL1A1 expression = experiment: Precision cut lung slices from human IPF explants, COL1A1 expression; format: cell-based
Description: Explanted lung tissue was obtained from human IPF subjects and inflated with agarose as described in the preceding examples. Biopsy cores were obtained from the agarose-inflated lung tissue. The biopsy cores were subjected to precision slicing to obtain several hundred μm thick. Individual slices were distributed in a multiwell culture plate and cultured for […] under control (DMSO) and test compound conditions. The viability of the slices over the course of culturing was confirmed by WST-1 assay of mitochondrial activity.
PCLS from 5-7 idiopathic pulmonary fibrosis (IPF) lung tissue samples were cultured for seven days with one of: DMSO; Compound 5 at 200 nM; nintedanib at 75 nM; pirfenidone at 50 μM; a combination of Compound 5 at 200 nM and nintedanib at 75 nM; a combination of Compound 5 at 200 nM and pirfenidone at 50 μM; or an ALK5 inhibitor at 1 μM. […] FIG. 6D is a bar graph showing relative expression of COL1A1 in precision cut lung slices (PCLS) from idiopathic pulmonary fibrosis (IPF) lung tissue upon exposure to Compound 5, clinical standard of care compounds nintedanib (Nin) and pirfenidone (Pirf), and an ALK5 inhibitor, all versus DMSO control.
PCLS from a single IPF lung tissue sample were cultured for seven days with Compound 5 at concentrations of 200 pM, 2 nM, 60 nM, 200 nM, and 1 μM, along with 0.1% DMSO control and an ALK5 inhibitor at 1 μM. […] COL1A1 expression is also graphed for the PCLS in the presence of 0.1% DMSO control, and an ALK5 inhibitor at 1 μM.

[3] = system: patients with idiopathic pulmonary fibrosis (IPF); experiment: Phase 2a randomized, double-blind, placebo-controlled trial in IPF; format: in vivo, human
Description: The exploratory endpoints of the trial measured changes in forced vital capacity (FVC), HRCT-based Quantitative Lung Fibrosis score (QLF), and selected biomarkers over 3 months of treatment.

[4] = Phase 2a clinical trial: pharmacokinetics, sparse sampling, % unbound; format: in vivo, human; settings: b1346 concentrations; b1380 unbound concentrations
Description: Overall Summary of Pharmacokinetics. Based on sparse sampling, overall Compound 5 pharmacokinetics and % unbound in IPF were consistent with that of previous studies. […] Overall % unbound was ˜0.3 to 0.5%. Full PK curve will be predicted using population PK model to project AUC0-24 and Cmax.
Pharmacokinetic Evaluation. Sparse PK sampling was utilized for pharmacokinetic evaluation.

[5] = system: PRO-C6, Type VI collagen synthesis neoepitope; experiment: Phase 2a clinical trial: serum biomarker PRO-C6; format: in vivo, human; settings: IPF participants, 40 to 320 mg, 4 and 12 weeks
Experimental: Blank columns represent 40 mg Compound 5 dosage. Grid pattern filled columns represent 80 mg Compound 5 dosage. Diagonal line filled columns represent 160 mg Compound 5 dosage. Dot filled columns represent all participants dosed with Compound 5. […] In FIG. 21, LS refers to Least Squares and SEM refers to Standard Error of Mean.
PRO-C3 and PRO-C6, serum biomarkers of type III and VI collagen synthesis, respectively, were previously shown to be elevated in patients with IPF and associated with progressive disease, according to Respir Res. 2019 Jul. 12; 20(1):148. Doi: 10.1186/s12931-019-1118-7, which is herein incorporated by reference in its entirety. Change from baseline was analyzed using a mixed model for repeated measures with terms for treatment group, visit, baseline value, and treatment-by-visit interaction. LS refers to Least Squares; SE refers to Standard Error.

integrin beta-6 (ITGB6) = experiment: Phase 2a clinical trial: plasma integrin beta-6; format: in vivo, human; settings: IPF participants; greatest effect at 320 mg
Description: Med. 2022 June; 10(6):593-602, which is incorporated herein by reference in its entirety. […] Res. 2019 Jul. 12; 20(1):148, which is incorporated herein by reference in its entirety. ** denotes that p<0.01 vs placebo. LS refers to Least Squares. SE refers to Standard Error. Integrin beta-6 data was reported in relative quantitation log2 scale.

[6] = system: participants with idiopathic pulmonary fibrosis (IPF); experiment: Phase 2a clinical trial: patient-reported cough severity visual analog scale (VAS); format: in vivo, human; settings: 320 mg, weeks 12 and 24, ITT; worsening on placebo
Experimental: Of interest, patients receiving Compound 5 experienced a positive impact on cough severity, while cough severity in patients receiving placebo worsened over time. […] The data histograms from left to right are 320 mg Compound 5 treatment at week 12, 320 mg Compound 5 treatment at week 24, placebo treatment at week 12, and placebo treatment at week 24. […] Cough VAS measured patient reported cough severity over last 2 weeks on scale of 0-100 mm.

[7] = Dose-Dependent Target Engagement (FIG. 12, prior studies); format: in vivo, human
Description: FIG. 12 through FIG. 33 illustrate various details and results from the clinical trial. […] In FIG. 12, BAL refers to bronchoalveolar lavage; pSmad2/Smad2 refers to ratio of phosphorylated Smad2 to total Smad2; and QD refers to once daily. **** refers to p<0.0001.

[8] = 12 weeks, 40/80/160 mg once daily

For COCCN(CCCCc1ccc2c(n1)NCCC2)CC[C@H](Nc1ncnc2ccccc12)C(=O)O [Compound 5, (S)-4-((2-methoxyethyl) (4-(5,6,7,8-tetrahydro-1,8-naphthyridin-2-yl)butyl)amino)-2-(quinazolin-4-ylamino) butanoic acid], the “cell adhesion in the IPF-derived lung fibroblasts” value [1] was “substantially inhibited”, the “Type I Collagen gene Col1a1 expression, normalized to DMSO control slices” value [2] was “decreased Type I Collagen gene Col1a1 expression substantially” and the “reduction of COL1A1 expression” value (COL1A1 expression; human IPF PCLS (5-7 tissues), 7 days, Compound 5 at 200 nM alone) was 43%. For the same compound, the “lung Col1a1 expression, normalized to DMSO control slices” value (COL1A1 expression; human IPF PCLS, 3 days, 3G9 ≥400 ng/mL, Compound 5 179 nM, ALK5 inhibitor 1 μM) was “substantial, statistically significant (p<0.01 vs vehicle) decrease”, the “COL1A1 expression, dose response” value (COL1A1 expression; human IPF PCLS, 7 days, 200 pM to 1 μM) was “dose dependent reduction” and the “reduction of COL1A1 expression” value (COL1A1 expression; human IPF PCLS, 7 days, Compound 5 at 200 nM in combination with nintedanib at 75 nM) was 55%. The “reduction of COL1A1 expression” value (COL1A1 expression; human IPF PCLS, 7 days, Compound 5 at 200 nM in combination with pirfenidone at 50 μM) was 49%, the tolerability ([3]; 40 mg, 80 mg, 160 mg once daily, 12 weeks) was “well tolerated” and the “increase in FVC relative to baseline” value ([3]; 80 mg treatment group, 12 weeks) was “+24.6 mL”. The “severity of most treatment emergent adverse events (TEAE)” value [3, 8] was “mild or moderate”, the “treatment related deaths or drug related serious adverse events (SAE)” value [3, 8] was “No treatment related deaths or drug related serious adverse events” and the “plasma concentrations vs dose” value ([3]; 40/80/160 mg once daily) was “generally dose proportional increases”. For the same compound, the “patients who completed 12 weeks of treatment with no discontinuations due to adverse events” value ([3]; 67 patients treated, 40/80/160 mg once daily) was 97%, the serious adverse events ([3]; administration of Compound 5 alone, patients) was “did not result in serious adverse events” and the “serum biomarkers of collagen synthesis” value ([3]; change from baseline at 4 and 12 weeks vs. placebo, FIG. 33) was “reduced”. For the same compound, the “treatment-emergent adverse events (TEAEs)” value ([3]; combinations with nintedanib or with pirfenidone, patients) was “resulted in treatment-emergent adverse events”, the “reduction in FVC decline over 12 weeks versus placebo” value ([3]; pooled Compound 5 groups) was “approximately 80%” and the “circulating biomarkers integrin beta-6 (ITGB6) and Type III collagen synthesis neoepitope (PRO-C3) levels” value ([3]; relative to the placebo group, FIG. 40) was “reduced”. The “Concentrations in IPF participants versus dose” value [4] was “increased approximately proportionally with dose”, the “Serum PRO-C6, change from baseline relative to placebo” value [5] was “decreased; also recorded: reduced” and the “Circulating (plasma) integrin beta-6 levels relative to placebo” value (integrin beta-6 (ITGB6)) was “reduced”. The “Patient-reported cough severity (VAS), change from baseline” value [6] was “reduced” and the “Target engagement” value [7] was “dose dependent”.
